Patent US20110092367A1, “Herbicidal Compositions Comprising 4-amino-3,6-dichloropyridine-2-carboxylic Acid” (BASF SE, priority 2008, published 2011)

Experiments:
Stellaria media = assay: Field trial Example 1, successive application: damage on STEME; type: in vivo
Text: (§1) Aminiopyralid was used as commercial aquaeous solution having an active ingredient concentration of 240 g/l (Milestone™). Metazachlor was used as a commercial suspension concentrate having an active ingredient concentration of 500 g/l (Butisan S®).
(§2) The performance of aminopyralid applied as an alone treatment at 15, 30 and 50 g a.i./ha applied as an early post emergence treatment and an post emergence treatment in comparison to two different applications including metazachlor at 500 g a.i./ha as an early post emergence application in succession of aminopyralid as a post emergence application at 15 and 30 g a.i./ha was assessed in an oilseed rape field trials.
(§3) The early post emergence treatment was applied by means of fine distributed nozzles at the growth stage (GS) of the crop BBCH 11-12.
(§4) The post emergence treatment was applied by means of fine distributed nozzles at the growth stage (GS) of the crop BBCH 13-14.
(§5) The test period extended over the autumn and spring season (205 days).
(§6) In the following experiments, the herbicidal activity for the individual herbicide compounds (solo application) and of the herbicidal succession was assessed 4 times:
(§7) The evaluation for the damage on undesired weeds caused by the chemical compositions was carried out using a scale from 0 to 100%, compared to the untreated control plants. Here, 0 means no damage and 100 means complete destruction of the plants.

Galium aparine = assay: Field trial Example 1, successive application: damage on GALAP; type: in vivo
Text: as §1, §2, §3, §4, §5, §6, §7

[1] = 15 g ai/ha, treatment A early post emergence, DAT 25/DALT 10
[2] = 15 g ai/ha, treatment A early post emergence, DAT 65/DALT 50
[3] = 15 g ai/ha, treatment A early post emergence, DAT 176/DALT 161
[4] = 15 g ai/ha, treatment B post emergence, DAT 25/DALT 10
[5] = 15 g ai/ha, treatment B post emergence, DAT 65/DALT 50
[6] = 15 g ai/ha, treatment B post emergence, DAT 176/DALT 161
[7] = 30 g ai/ha, treatment A early post emergence, DAT 25/DALT 10
[8] = 30 g ai/ha, treatment A early post emergence, DAT 65/DALT 50
[9] = 30 g ai/ha, treatment A early post emergence, DAT 176/DALT 161
[10] = 30 g ai/ha, treatment B post emergence, DAT 25/DALT 10
[11] = 30 g ai/ha, treatment B post emergence, DAT 65/DALT 50
[12] = 30 g ai/ha, treatment B post emergence, DAT 176/DALT 161
[13] = 50 g ai/ha, treatment A early post emergence, DAT 25/DALT 10
[14] = 50 g ai/ha, treatment A early post emergence, DAT 65/DALT 50
[15] = 50 g ai/ha, treatment A early post emergence, DAT 176/DALT 161
[16] = 50 g ai/ha, treatment B post emergence, DAT 25/DALT 10
[17] = 50 g ai/ha, treatment B post emergence, DAT 65/DALT 50
[18] = 50 g ai/ha, treatment B post emergence, DAT 176/DALT 161
[19] = aminopyralid 15 g ai/ha, treatment A, DAT 205/DALT 190
[20] = aminopyralid 15 g ai/ha, treatment B, DAT 205/DALT 190
[21] = aminopyralid 30 g ai/ha, treatment A, DAT 205/DALT 190
[22] = aminopyralid 30 g ai/ha, treatment B, DAT 205/DALT 190
[23] = aminopyralid 50 g ai/ha, treatment A, DAT 205/DALT 190
[24] = aminopyralid 50 g ai/ha, treatment B, DAT 205/DALT 190

Nc1cc(Cl)nc(C(=O)O)c1Cl [aminopyralid, 4-amino-3,6-dichloropyridine-2-carboxylic acid]
damage on STEME (Stellaria media; [1]): 32% | damage on STEME (Stellaria media; [2]): 52% | damage on STEME (Stellaria media; [3]): 93% | damage on STEME (Stellaria media; [4]): 12% | damage on STEME (Stellaria media; [5]): 50% | damage on STEME (Stellaria media; [6]): 77% | damage on STEME (Stellaria media; [7]): 90% | damage on STEME (Stellaria media; [8]): 97% | damage on STEME (Stellaria media; [9]): 98% | damage on STEME (Stellaria media; [10]): 38% | damage on STEME (Stellaria media; [11]): 68% | damage on STEME (Stellaria media; [12]): 95% | damage on STEME (Stellaria media; [13]): 100% | damage on STEME (Stellaria media; [14]): 100% | damage on STEME (Stellaria media; [15]): 100% | damage on STEME (Stellaria media; [16]): 67% | damage on STEME (Stellaria media; [17]): 88% | damage on STEME (Stellaria media; [18]): 95% | damage on STEME (Stellaria media; [19]): 93% | damage on STEME (Stellaria media; [20]): 78% | damage on STEME (Stellaria media; [21]): 100% | damage on STEME (Stellaria media; [22]): 98% | damage on STEME (Stellaria media; [23]): 100% | damage on STEME (Stellaria media; [24]): 97% | damage on GALAP (Galium aparine; [1]): 67% | damage on GALAP (Galium aparine; [2]): 77% | damage on GALAP (Galium aparine; [3]): 86% | damage on GALAP (Galium aparine; [4]): 72% | damage on GALAP (Galium aparine; [5]): 78% | damage on GALAP (Galium aparine; [6]): 82% | damage on GALAP (Galium aparine; [7]): 92% | damage on GALAP (Galium aparine; [8]): 96% | damage on GALAP (Galium aparine; [9]): 96% | damage on GALAP (Galium aparine; [10]): 72% | damage on GALAP (Galium aparine; [11]): 78% | damage on GALAP (Galium aparine; [12]): 86% | damage on GALAP (Galium aparine; [13]): 99% | damage on GALAP (Galium aparine; [14]): 99% | damage on GALAP (Galium aparine; [15]): 100% | damage on GALAP (Galium aparine; [16]): 87% | damage on GALAP (Galium aparine; [17]): 87% | damage on GALAP (Galium aparine; [18]): 89% | damage on GALAP (Galium aparine; [19]): 88% | damage on GALAP (Galium aparine; [20]): 87% | damage on GALAP (Galium aparine; [21]): 93% | damage on GALAP (Galium aparine; [22]): 91% | damage on GALAP (Galium aparine; [23]): 100% | damage on GALAP (Galium aparine; [24]): 93%
